Data: ChEMBL document CHEMBL5233229, “Recent advances in the development of ubiquitin-specific-processing protease 7 (USP7) inhibitors” (Eur J Med Chem, 2020)
Converted amounts (≈) assume the structure as drawn. One block for each compound: values may come before it.

What was measured:
[1] = test system: MM1.S; experiment: Anticancer activity against human MM1.S cells assessed as cell growth inhibition incubated for 120 hrs by CellTiter-Glo assay; type: functional, cell-based
[2] = target: T1, Ubiquitin carboxyl-terminal hydrolase 7 (Homo sapiens, UniProt Q93009); experiment: Inhibition of human his tagged USP7 (208 to 560 residues) catalytic domain expressed in insect sf9 cells using monoubiquitinated ubiquitin-rhodamine as substrate incubated for 1 hrs by fluorescence based assay
Target sequence in this assay (Q93009 whole entry, the tested form may be a part): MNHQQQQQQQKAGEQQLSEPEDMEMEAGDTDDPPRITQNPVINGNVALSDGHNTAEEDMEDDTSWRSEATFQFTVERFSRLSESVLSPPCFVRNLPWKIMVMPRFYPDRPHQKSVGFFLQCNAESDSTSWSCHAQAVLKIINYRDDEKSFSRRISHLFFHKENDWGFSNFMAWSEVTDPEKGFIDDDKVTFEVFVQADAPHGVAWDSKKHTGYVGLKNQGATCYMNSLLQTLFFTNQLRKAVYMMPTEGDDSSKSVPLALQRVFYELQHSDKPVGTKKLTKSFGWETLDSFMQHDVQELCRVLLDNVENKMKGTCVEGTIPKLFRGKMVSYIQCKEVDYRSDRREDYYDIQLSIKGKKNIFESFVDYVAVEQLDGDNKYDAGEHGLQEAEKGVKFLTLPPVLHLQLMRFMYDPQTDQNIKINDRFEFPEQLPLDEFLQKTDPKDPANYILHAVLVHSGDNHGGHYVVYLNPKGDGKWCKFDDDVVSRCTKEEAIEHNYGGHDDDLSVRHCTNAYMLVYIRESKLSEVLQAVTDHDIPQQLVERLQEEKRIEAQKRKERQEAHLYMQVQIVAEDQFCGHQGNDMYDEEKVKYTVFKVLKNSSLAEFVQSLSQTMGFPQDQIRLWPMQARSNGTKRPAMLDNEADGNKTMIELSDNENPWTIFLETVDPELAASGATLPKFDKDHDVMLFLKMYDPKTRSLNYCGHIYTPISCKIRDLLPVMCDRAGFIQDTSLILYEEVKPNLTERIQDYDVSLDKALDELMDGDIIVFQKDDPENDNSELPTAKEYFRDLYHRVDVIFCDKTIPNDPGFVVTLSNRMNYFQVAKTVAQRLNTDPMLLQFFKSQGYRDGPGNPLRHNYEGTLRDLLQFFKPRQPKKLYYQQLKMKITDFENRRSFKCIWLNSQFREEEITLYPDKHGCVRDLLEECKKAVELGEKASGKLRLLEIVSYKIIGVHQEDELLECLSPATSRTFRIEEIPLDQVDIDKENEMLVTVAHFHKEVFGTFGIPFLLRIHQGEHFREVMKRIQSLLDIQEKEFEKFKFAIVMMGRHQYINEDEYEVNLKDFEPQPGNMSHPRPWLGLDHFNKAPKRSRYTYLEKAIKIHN

[3] = target: T2, Ubiquitin carboxyl-terminal hydrolase 14 (Homo sapiens, UniProt P54578); experiment: Inhibition of human his tagged USP14 assessed as dissociation constant by SPR analysis
T2 sequence (P54578 whole entry): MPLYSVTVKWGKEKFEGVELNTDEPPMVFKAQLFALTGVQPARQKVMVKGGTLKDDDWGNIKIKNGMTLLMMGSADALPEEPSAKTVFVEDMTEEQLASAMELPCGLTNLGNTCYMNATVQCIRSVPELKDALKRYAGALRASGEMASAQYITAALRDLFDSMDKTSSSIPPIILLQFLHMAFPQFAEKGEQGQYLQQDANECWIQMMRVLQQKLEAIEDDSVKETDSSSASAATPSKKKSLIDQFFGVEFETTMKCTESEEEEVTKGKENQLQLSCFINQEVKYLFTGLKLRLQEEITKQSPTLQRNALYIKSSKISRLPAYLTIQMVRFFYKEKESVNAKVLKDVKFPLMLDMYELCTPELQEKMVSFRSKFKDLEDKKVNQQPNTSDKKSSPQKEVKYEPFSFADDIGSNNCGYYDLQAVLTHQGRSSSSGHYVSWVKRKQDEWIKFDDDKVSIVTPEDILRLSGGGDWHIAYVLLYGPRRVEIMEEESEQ

[4] = target: T2, Ubiquitin carboxyl-terminal hydrolase 14; experiment: Inhibition of human his tagged USP14 by SPR analysis
[5] = target: T3, Ubiquitin carboxyl-terminal hydrolase isozyme L5 (Homo sapiens, UniProt Q9Y5K5); experiment: Inhibition of human his tagged UCHL5 assessed as dissociation constant by SPR analysis
T3 sequence (Q9Y5K5 whole entry): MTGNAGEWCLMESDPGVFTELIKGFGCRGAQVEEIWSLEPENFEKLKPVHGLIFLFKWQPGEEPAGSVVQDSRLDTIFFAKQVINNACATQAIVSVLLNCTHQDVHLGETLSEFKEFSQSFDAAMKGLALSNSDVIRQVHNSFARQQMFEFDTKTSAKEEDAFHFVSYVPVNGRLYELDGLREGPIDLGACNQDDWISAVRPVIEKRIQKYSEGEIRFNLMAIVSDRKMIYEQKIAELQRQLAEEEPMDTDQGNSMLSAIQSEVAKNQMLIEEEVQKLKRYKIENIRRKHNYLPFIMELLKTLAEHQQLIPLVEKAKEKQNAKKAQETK

[6] = target: T2, Ubiquitin carboxyl-terminal hydrolase 14; experiment: Inhibition of human USP14 using Ub-PA as substrate assessed as deubiquitination level incubated for 1 hr by SDS-PAGE assay
[7] = target: T4, Ubiquitin carboxyl-terminal hydrolase 5 (Homo sapiens, UniProt P45974); experiment: Inhibition of human USP5 using Ub-PA as substrate assessed as deubiquitination level incubated for 1 hr by SDS-PAGE assay
T4 sequence (P45974 whole entry): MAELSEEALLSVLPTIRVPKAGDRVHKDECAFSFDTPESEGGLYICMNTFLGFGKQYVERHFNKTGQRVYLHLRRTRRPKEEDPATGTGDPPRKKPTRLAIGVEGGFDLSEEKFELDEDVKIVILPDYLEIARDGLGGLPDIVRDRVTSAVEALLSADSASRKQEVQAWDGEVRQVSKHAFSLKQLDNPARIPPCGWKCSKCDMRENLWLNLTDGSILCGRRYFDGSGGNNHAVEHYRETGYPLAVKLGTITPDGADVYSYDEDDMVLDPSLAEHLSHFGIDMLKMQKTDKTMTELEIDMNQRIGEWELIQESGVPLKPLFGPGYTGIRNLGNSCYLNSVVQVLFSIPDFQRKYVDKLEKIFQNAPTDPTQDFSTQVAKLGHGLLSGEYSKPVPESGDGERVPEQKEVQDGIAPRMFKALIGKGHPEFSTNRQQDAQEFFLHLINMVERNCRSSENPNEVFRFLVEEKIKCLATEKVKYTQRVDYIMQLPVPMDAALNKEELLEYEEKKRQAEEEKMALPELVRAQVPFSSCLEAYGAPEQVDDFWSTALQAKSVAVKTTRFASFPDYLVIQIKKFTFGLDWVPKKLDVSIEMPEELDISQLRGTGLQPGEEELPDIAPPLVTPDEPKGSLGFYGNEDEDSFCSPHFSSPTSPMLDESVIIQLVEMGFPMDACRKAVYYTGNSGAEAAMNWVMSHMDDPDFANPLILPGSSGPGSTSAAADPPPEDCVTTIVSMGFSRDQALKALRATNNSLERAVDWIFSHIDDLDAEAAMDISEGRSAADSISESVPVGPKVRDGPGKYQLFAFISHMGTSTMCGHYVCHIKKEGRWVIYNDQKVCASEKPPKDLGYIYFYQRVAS

[8] = target: T5, Ubiquitin carboxyl-terminal hydrolase isozyme L1 (Homo sapiens, UniProt P09936); experiment: Inhibition of human his tagged UCH-L1 by Westernblot analysis
T5 sequence (P09936 whole entry): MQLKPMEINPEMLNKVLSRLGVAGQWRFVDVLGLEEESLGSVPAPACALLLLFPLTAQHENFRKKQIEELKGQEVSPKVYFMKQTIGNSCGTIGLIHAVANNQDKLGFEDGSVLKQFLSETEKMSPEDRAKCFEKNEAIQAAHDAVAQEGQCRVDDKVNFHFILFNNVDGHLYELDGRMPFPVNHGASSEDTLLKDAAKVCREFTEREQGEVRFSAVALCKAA

[9] = target: T6, Ubiquitin carboxyl-terminal hydrolase 2 (Homo sapiens, UniProt O75604); experiment: Inhibition of human his tagged USP2 by Westernblot analysis
T6 sequence (O75604 whole entry): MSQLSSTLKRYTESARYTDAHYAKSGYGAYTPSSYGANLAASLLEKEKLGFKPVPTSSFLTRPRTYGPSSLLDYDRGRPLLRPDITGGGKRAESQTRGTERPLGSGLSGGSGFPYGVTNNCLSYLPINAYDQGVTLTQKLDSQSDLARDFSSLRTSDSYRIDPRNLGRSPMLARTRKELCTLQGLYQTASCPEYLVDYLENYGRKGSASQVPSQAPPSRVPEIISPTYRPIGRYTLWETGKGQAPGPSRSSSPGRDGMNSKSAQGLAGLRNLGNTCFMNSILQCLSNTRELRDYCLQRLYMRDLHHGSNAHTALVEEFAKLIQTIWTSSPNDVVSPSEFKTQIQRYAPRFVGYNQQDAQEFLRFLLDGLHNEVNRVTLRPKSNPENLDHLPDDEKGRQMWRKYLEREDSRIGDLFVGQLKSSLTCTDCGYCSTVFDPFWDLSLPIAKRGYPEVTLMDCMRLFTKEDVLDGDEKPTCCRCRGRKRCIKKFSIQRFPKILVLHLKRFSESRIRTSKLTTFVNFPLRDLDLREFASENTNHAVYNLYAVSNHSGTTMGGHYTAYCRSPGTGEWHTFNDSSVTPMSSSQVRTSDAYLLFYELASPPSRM

[10] = target: T4, Ubiquitin carboxyl-terminal hydrolase 5; experiment: Inhibition of human his tagged USP5 by Westernblot analysis
[11] = target: Ubiquitin carboxyl-terminal hydrolase 20 (Homo sapiens, UniProt Q9Y2K6); experiment: Inhibition of human his tagged USP20 by Westernblot analysis
[12] = target: T7, Ubiquitin carboxyl-terminal hydrolase isozyme L3 (Homo sapiens, UniProt P15374); experiment: Inhibition of human his tagged UCH-L3 by Westernblot analysis
T7 sequence (P15374 whole entry): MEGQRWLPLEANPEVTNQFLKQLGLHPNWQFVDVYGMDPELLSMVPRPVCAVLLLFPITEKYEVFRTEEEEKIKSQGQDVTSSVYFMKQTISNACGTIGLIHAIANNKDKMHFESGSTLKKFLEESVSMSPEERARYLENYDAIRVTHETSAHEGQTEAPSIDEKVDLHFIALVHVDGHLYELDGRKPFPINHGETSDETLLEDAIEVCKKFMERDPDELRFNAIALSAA

[13] = target: T8, Ubiquitin carboxyl-terminal hydrolase 8 (Homo sapiens, UniProt P40818); experiment: Inhibition of human his tagged USP8 by Westernblot analysis
T8 sequence (P40818 whole entry): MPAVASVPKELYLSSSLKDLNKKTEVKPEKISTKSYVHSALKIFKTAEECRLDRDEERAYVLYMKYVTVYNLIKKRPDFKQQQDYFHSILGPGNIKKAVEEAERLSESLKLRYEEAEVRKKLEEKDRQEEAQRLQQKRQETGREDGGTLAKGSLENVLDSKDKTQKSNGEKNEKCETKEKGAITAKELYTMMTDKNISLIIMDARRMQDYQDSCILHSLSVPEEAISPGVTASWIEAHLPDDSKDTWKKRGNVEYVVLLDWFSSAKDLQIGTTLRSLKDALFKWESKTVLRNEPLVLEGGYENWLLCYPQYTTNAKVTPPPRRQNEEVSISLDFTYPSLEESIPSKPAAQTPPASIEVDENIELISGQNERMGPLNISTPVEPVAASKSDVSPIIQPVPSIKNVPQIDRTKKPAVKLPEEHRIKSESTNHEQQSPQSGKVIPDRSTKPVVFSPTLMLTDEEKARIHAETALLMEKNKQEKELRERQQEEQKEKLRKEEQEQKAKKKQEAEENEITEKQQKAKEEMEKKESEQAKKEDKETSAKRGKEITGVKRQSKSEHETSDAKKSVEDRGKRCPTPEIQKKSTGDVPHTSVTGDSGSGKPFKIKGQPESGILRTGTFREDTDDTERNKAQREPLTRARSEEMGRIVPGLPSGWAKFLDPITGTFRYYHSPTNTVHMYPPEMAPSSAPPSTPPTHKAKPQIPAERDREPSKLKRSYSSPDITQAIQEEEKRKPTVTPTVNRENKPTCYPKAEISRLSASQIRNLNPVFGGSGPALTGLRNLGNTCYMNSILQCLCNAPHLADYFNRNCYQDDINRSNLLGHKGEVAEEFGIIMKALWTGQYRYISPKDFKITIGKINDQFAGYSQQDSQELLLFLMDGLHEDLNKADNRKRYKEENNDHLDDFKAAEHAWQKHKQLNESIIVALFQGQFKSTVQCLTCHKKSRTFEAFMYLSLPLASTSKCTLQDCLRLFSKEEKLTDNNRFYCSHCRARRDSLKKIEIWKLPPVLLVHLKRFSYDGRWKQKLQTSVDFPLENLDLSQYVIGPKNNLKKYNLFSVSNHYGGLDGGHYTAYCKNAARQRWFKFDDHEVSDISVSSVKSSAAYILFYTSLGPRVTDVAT

[14] = Aqueous solubility of compound; type: physicochemical
[15] = target: Ubiquitin carboxyl-terminal hydrolase 9X (Homo sapiens, UniProt Q93008); experiment: Inhibition of USP9x (unknown origin)
Chain of Ubiquitin carboxyl-terminal hydrolase 9X (Q93008 whole entry): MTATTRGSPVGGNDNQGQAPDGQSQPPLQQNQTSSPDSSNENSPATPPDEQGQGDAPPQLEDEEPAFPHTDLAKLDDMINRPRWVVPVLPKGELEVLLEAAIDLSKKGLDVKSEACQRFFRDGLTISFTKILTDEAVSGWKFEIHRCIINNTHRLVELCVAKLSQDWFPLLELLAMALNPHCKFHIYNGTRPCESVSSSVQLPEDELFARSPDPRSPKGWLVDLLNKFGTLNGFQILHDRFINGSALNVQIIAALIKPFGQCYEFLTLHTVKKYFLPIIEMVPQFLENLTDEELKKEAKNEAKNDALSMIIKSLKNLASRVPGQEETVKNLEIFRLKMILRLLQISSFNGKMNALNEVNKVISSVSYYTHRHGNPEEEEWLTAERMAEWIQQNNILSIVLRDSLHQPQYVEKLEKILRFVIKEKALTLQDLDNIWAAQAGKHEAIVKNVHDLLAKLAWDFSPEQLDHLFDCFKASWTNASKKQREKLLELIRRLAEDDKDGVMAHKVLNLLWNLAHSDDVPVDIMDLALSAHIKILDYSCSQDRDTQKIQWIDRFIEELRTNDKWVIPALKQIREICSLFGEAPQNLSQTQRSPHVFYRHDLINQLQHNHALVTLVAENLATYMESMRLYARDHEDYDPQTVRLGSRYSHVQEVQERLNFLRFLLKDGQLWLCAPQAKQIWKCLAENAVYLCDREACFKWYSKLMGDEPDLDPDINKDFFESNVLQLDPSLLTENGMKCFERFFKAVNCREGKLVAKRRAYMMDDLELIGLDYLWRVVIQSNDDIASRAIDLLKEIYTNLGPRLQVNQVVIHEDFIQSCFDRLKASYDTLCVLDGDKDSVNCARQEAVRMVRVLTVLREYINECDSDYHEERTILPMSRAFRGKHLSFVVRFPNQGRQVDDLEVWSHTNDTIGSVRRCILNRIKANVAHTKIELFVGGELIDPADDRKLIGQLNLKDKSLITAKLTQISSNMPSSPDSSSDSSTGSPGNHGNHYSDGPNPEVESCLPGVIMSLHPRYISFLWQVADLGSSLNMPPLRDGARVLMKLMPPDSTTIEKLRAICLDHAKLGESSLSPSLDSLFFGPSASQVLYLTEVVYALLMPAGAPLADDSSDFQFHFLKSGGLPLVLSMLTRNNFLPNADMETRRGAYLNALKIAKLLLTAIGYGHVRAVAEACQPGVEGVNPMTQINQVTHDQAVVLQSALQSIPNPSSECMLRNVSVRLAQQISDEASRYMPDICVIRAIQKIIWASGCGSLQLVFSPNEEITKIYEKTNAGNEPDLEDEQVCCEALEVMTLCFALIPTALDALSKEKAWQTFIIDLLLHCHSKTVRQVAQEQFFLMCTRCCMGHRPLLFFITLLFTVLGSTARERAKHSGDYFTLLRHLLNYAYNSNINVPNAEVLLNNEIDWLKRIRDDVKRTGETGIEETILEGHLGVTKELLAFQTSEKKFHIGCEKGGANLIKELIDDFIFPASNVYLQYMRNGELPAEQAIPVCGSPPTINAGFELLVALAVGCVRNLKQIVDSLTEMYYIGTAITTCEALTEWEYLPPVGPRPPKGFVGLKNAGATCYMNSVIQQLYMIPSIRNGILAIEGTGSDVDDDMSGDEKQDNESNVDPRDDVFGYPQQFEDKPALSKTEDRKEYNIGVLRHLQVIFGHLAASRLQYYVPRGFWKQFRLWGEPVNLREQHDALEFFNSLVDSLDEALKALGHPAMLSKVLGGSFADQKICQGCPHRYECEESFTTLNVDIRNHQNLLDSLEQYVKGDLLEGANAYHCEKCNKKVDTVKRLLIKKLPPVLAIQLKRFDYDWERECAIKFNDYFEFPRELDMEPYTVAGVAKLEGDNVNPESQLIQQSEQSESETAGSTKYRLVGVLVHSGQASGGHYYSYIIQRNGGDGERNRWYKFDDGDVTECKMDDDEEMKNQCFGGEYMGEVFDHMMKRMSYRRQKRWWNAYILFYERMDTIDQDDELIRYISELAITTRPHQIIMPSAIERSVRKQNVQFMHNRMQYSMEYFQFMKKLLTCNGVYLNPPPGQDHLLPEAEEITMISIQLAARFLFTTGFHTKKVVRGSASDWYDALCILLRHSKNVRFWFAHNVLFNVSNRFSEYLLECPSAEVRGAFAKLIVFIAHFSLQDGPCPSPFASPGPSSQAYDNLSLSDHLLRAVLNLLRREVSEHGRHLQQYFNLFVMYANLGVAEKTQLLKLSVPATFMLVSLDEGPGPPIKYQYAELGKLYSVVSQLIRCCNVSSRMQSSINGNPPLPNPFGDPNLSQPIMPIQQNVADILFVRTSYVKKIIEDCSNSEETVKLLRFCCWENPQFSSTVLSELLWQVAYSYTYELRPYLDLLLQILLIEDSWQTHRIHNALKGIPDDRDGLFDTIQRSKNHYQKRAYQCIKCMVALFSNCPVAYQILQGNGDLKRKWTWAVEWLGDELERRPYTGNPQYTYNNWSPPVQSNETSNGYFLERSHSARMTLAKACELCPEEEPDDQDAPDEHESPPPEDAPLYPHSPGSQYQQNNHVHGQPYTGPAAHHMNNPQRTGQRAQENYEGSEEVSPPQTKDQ

[16] = test system: HCT-116; experiment: Anticancer activity against human HCT-116 cells assessed as cell growth inhibition; type: functional, cell-based
[17] = target: T8, Ubiquitin carboxyl-terminal hydrolase 8; experiment: Inhibition of human USP8 using Di-Ub IQF as substrate incubated for 15 mins by K63-2 assay
[18] = target: T6, Ubiquitin carboxyl-terminal hydrolase 2; experiment: Inhibition of human USP2 using Di-Ub IQF as substrate incubated for 15 mins by K63-2 assay
[19] = test system: HCT-116; experiment: Anticancer activity against human HCT-116 cells assessed as cell growth inhibition incubated for 72 hrs by CellTiter Glo assay; type: functional, cell-based; details: HCT-116, 72 h
[20] = target: T1, Ubiquitin carboxyl-terminal hydrolase 7; experiment: Inhibition of human USP7 by SPR analysis
Target sequence in this assay (Q93009 whole entry, the tested form may be a part): as the sequence (Q93009 whole entry, the tested form may be a part) above

[21] = target: T1, Ubiquitin carboxyl-terminal hydrolase 7; experiment: Inhibition of human his tagged USP7 (208 to 560 residues) expressed in insect sf9 cells using monoubiquitinated ubiquitin-rhodamine as substrate assessed as ratio of Kinact/Ki incubated for 1 hrs by fluorescence based assay
Target sequence in this assay (Q93009 whole entry, looked up, the tested form may be a part): as the sequence (Q93009 whole entry, the tested form may be a part) above

[22] = target: T1, Ubiquitin carboxyl-terminal hydrolase 7; experiment: Inhibition of human his tagged USP7 (208 to 560 residues) expressed in insect sf9 cells using monoubiquitinated ubiquitin-rhodamine as substrate assessed as dissociation constant incubated for 1 hrs by fluorescence based assay
Target sequence in this assay (Q93009 whole entry, the tested form may be a part): as above

[23] = target: T1, Ubiquitin carboxyl-terminal hydrolase 7; experiment: Inhibition of human USP7 using Ub-Rho110 as substrate by fluorescence based SPR analysis
Target sequence in this assay (Q93009 whole entry, the tested form may be a part): as above

[24] = target: Ubiquitin carboxyl-terminal hydrolase 24 (Homo sapiens, UniProt Q9UPU5); experiment: Inhibition of USP24 (unknown origin)

SMILES: O=C(C[C@@H](C(F)F)n1ccc(F)n1)N1CCC(O)(Cn2cnc3c(cnn3-c3ccc(F)cc3)c2=O)CC1
IC50 [1]: 33 nM
IC50 [2]: 69 nM

SMILES: C=CC(=O)N1CC/C(=C\c2ccc(F)c([N+](=O)[O-])c2)C(=O)/C(=C/c2ccc(F)c([N+](=O)[O-])c2)C1
Kd [3]: 14000 nM
IC5 [4]: 10 µM
Kd [5]: 1500 nM

SMILES: Cc1cc(C(=O)CN2CCCCC2)c(C)n1-c1ccc(F)cc1
IC50 [6]: 680 nM
IC50 [7]: 29100 nM

SMILES: CCC[C@H](NC(=O)/C(C#N)=C/c1cccc(Br)n1)c1ccccc1
solubility [14]: 2.3 µM (≈ 0.884 µg/mL)
IC50 [15]: 2500 nM

SMILES: C=CS(=O)(=O)Nc1ccccc1-c1ccc(C(=O)N2CCC(O)(Cn3cnc4c(cnn4-c4ccc(F)cc4)c3=O)CC2)cc1
IC50 [20]: 65 nM
Ratio [21]: 66 M⁻¹ s⁻¹
Kd [22]: 7800 nM

More lines, now with the values ahead:

IC50 [8]: > 200000 nM
IC50 [9]: > 200000 nM
IC50 [10]: > 200000 nM
IC50 [11]: > 200000 nM
IC50 [12]: > 200000 nM
IC50 [13]: > 200000 nM
SMILES: O=C(NCCc1ccc(Cl)cc1)c1ccc2nc3c(c(Cl)c2c1)CCCC3

IC50 [16]: 2000 nM
SMILES: CN(CCCNC(=O)c1ccc2nc3c(c(Cl)c2c1)CCCC3)Cc1ccccc1

IC50 [17]: 950 nM
IC50 [18]: 1100 nM
EC50 [19]: 3600 nM
SMILES: Cc1ccc(S(=O)(=O)Nc2cc(C(F)(F)F)ccc2C(=O)Nc2nc(-c3ccccc3)cs2)cc1

IC50 [23]: 1.5 nM
SMILES: NCc1ccc(-c2[nH]nc3c(=O)n(CC4(O)CCN(C(=O)C[C@H](c5ccccc5)C(F)(F)F)CC4)cnc23)cc1

IC50 [24]: 2500 nM
SMILES: CCCC(NC(=O)/C(C#N)=C/c1nc(Cl)ccc1Cl)c1ccc(OCCN2CCOCC2)cc1 (centres undefined)
